In ChEMBL document CHEMBL1129045, “Potential antitumor agents. 24. Synthesis and pharmacological behavior of imidazo[2,1-b]thiazole guanylhydrazones bearing at least one chlorine” (J Med Chem, 1996):
≈ marks a conversion by molar mass, not a printed value.

What was measured:
Mus musculus [1] = experiment: Compound was tested in vivo antitumor activity against Ehrlich ascites in mice at 12.5 mg/kg ip; type: functional; details: route intraperitoneal
HeLa = experiment: Compound was tested in vitro for cytotoxicity against HeLa cells.; type: functional, cell-based, Homo sapiens
[2] = Compound was tested for initial contractile force 0.4+/-0.1 g (% deltabase line value)
Mus musculus [3] = experiment: Compound was tested in vivo antitumor activity against Ehrlich ascites in mice at 100 mg/kg ip; type: functional; details: route intraperitoneal
Mus musculus [4] = experiment: Compound was tested in vivo antitumor activity against Ehrlich ascites in mice at 50 mg/kg ip; type: functional; details: route intraperitoneal
Mus musculus [5] = experiment: Compound was tested in vivo antitumor activity against Ehrlich ascites in mice at 6.25 mg/kg ip; type: functional; details: route intraperitoneal
Mus musculus [6] = experiment: Compound was tested in vivo antitumor activity against Ehrlich ascites in mice at 25 mg/kg ip; type: functional; details: route intraperitoneal
Cavia porcellus = species: Cavia porcellus; experiment: Positive inotropic activity in isolated guinea pig atria, Concentration producing 50% of the maximal effect; type: functional
Mus musculus [7] = experiment: Compound was tested in vivo antitumor activity against Ehrlich ascites in mice at 1 mg/kg ip; type: functional; details: route intraperitoneal
[8] = Compound was tested for concentration to obtain Emax (microg)

Row | Structure (SMILES) | IC50 (HeLa) | Delta [2] | T/C (Mus musculus [4]) | also measured
1 | N=C(N)N/N=C/c1c(-c2ccc(Cl)c(Cl)c2Cl)nc2sccn12 | 2 µg/mL (≈ 5.16 µM) |  |  | T/C (Mus musculus [1]): 180%
2 | N=C(N)N/N=C/c1c(Cl)nc2sc(Cl)cn12 | > 10 µg/mL | 135% |  | T/C (Mus musculus [3]): 120%
3 | Cc1csc2nc(Cl)c(/C=N/N=C(N)N)n12 | > 10 µg/mL | 134% | 106% | 
4 | N=C(N)N/N=C/c1c(-c2ccc(Cl)cc2)nc2sc(Cl)cn12 | 0.6 µg/mL (≈ 1.7 µM) | 100% |  | T/C (Mus musculus [1]): 166%
5 | N=C(N)N/N=C/c1c(-c2ccc(Cl)cc2Cl)nc2n1CCS2 | 5 µg/mL (≈ 14.1 µM) | 119% | 200% | 
6 | Cc1sc2nc(-c3ccc(Cl)cc3)c(/C=N/N=C(N)N)n2c1C | 2 µg/mL (≈ 5.77 µM) | 118% |  | T/C (Mus musculus [1]): 140%
7 | Cc1cn2c(/C=N/N=C(N)N)c(-c3ccc(Cl)cc3)nc2s1 | 1.5 µg/mL (≈ 4.51 µM) | 106% |  | T/C (Mus musculus [5]): 166%
8 | Cc1csc2nc(-c3ccc(Cl)cc3)c(/C=N/N=C(N)N)n12 | 2 µg/mL (≈ 6.01 µM) | 115% |  | T/C (Mus musculus [6]): 133%
9 | N=C(N)N/N=C/c1c(-c2ccc(Cl)c(Cl)c2Cl)nc2n1CCS2 | 2.5 µg/mL (≈ 6.42 µM) | 111% | 166% | 
10 | N=C(N)N/N=C/c1c(-c2ccc(Cl)cc2Cl)nc2sccn12 | 2.5 µg/mL (≈ 7.08 µM) | 100% |  | T/C (Mus musculus [6]): 146%
11 | Cc1sc2nc(Cl)c(/C=N/N=C(N)N)n2c1C | > 10 µg/mL | 137% | 100% | 
12 | Cc1cn2c(/C=N/N=C(N)N)c(Cl)nc2s1 | > 10 µg/mL | 146% | 106% | EC50 (Cavia porcellus): 0.016 mg
13 | COc1cccc2c1C(=O)c1c(O)c3c(c(O)c1C2=O)C[C@@](O)(C(=O)CO)C[C@@H]3O[C@H]1C[C@H](N)[C@H](O)[C@H](C)O1 [DOXORUBICIN] | 0.005 µg/mL (≈ 0.0092 µM) |  |  | T/C (Mus musculus [7]): 200%
14 | O=c1[nH]cc(F)c(=O)[nH]1 [FLUOROURACIL] | 6 µg/mL (≈ 46.1 µM) |  |  | T/C (Mus musculus [3]): 180%
15 | COc1cc([S+](C)[O-])ccc1-c1nc2ncccc2[nH]1 (configuration not stated) [SULMAZOLE] |  | 163% |  | Emax [8]: 350 µg
